Values after ≈ are worked out from the molar mass of the structure shown.
Columns and labels:
Bean callus cell culture = experiment: Growth of bean callus cell culture (Example XIX); format: cell-based, Phaseolus vulgaris, var. seafarer
Experimental: (§1) Cell cultures were separately grown in disposable petri dishes.
4. Bean (Phaseolus vulgaris, var. seafarer)
(§2) The cultures were grown on the basic medium of mineral salts described by Linsmaier and Skoog (Physiol. Plant, […] (1965)). Vitamins and hormones varied for each tissue (Table X-1) to maintain the tissues in an undifferentiated state. For all of the tissues inositol was 100 mg/liter and agar 1%. Sucrose was 3% for all but the bean which was 2%.
(§3) Callus was produced from pith for tobacco, potato and tomato. Bean callus was produced from hypocotyl sections and barley callus from immature ovarian tissue. Subcultures were maintained on the appropriate media.
(§4) Stock solutions of triacontanol were prepared at a concentration of 100 μg/ml. The solvent used was glass distilled benzene. The lower concentrations were obtained by serial dilutions. Treatments were applied to 4.5 cm Whatman #1 filter paper disks in 100 μl aliquots. Controls received 100 μl of glass distilled benzene. The solvent was evaporated for approximately 15 minutes and the filter papers were then placed on the agar medium.
(§5) Callus tissue was then broken into pieces of approximately the same size (10 mg) and placed in the petri dishes on the treated filter paper (one piece per dish). For experiments conducted in the light the intensity was approximately 2.0 microwatts/cm^2 -namometer. Fresh weight measurements were made after 12 days of growth.

IR-8 rice seedlings = experiment: Growth and water uptake of IR-8 rice seedlings (Example IV); format: in vivo; conditions: for Dry Wt. per plant / Leaf Area per plant / Water Uptake per leaf area / Water Uptake per plant: 10 μg/liter
Experimental: Rice seed cv. IR-8, or Starbonnet was surface treated with 0.1 percent mercuric chloride and planted in 77 cc plastic cups containing vermiculite and watered with one-fourth Hoagland's nutrient solution containing 3 mM of nitrogen at pH 5.0. After 10 days, seedlings were transplanted to 220 cc specimen cups wrapped in aluminum foil and containing 180 cc of the same Hoagland's nutrient solution. Four seedlings were suspended in the solution with a sponge rubber disc. The plants were grown under a 8 h night at 25° C. and a 16 h day at 30° C. with 21 and 8 μwatts per cm^2 in the blue and red spectra respectively. In the test with varying light intensity the high light intensity was 30 13 and the low intensity was 15 and 8 μwatts per cm^2 for the blue and red spectra respectively. The nutrient solution was renewed every 2 or 3 days. After one week the plants were sorted for size and similar sized plants assigned to the same block for the experiment. Prior to the initiation of a test the plants in each cup were assigned treatment numbers by use of a random number table. […] Sixteen hours prior to a test the foil wrapped cups were tared, and filled with one-half Hoaglands solution containing 6 mM nitrogen. Eighteen μl of chloroform or chloroform containing 1.8 μg triacontanol were placed on 2 cm^2 of Whatman No. 1 filter papers, air dried and placed in the specimen cups. This concentration of 10 μg triacontanol/liter was used for all tests described in the following Examples except where specifically indicated to the contrary. Immediately prior to the test the cups were all brought up to 180 ml. including a set of cups without plants to measure evaporation.
Water uptake was measured by weighing the cups after removal of the plants and subtracting the tare and the water evaporated. For tests continued for more than one day, the solution used was measured every 3 days and new Hoagland's added and the pH maintained at 5.0 with sulfuric acid.
The plants were disected at harvest into shoots and roots. The expanded leaves were cut at the ligule and the newest leaf at the point it entered the sheath. The surface area of expanded leaves were measured using a Lambda Model LI-3000 planimeter. The plants were dried to constant weight in an oven at 100° C. and the roots, expanded leaves, and sheaths were weighed separately.
Four to 6 replicates were used in each experiment in a randomized complete block design. The data were submitted to analysis of variance. Means were compared by use of the L.S.D. except where there was only one degree of freedom for treatment. In these instances the F value from the analysis of variance was used for comparison of means.
To determine the effect of triacontanol on growth and water uptake of IR-8 rice seedlings, the seedlings were prepared as above explained. Alternate seedlings were treated with no triacontanol or with a concentration of 10 μg triacontanol per liter as above set forth. Leaf area, dry weight and water uptake were determined for each plant at 0 time and at 8, 24, 72 and 216 hour intervals.

Chico III tomatoes = experiment: Synthetic triacontanol on tomatoes grown in soil, foliage sprayed (Example III); format: in vivo, tomato; conditions: six days
Experimental: Synthetic triacontanol in aqueous solution was applied to rice (4 replicates) in nutrient cultures and to "Chico III" tomatoes (6 replicates) grown in soil as previously described. The response of both rice and tomatoes to synthetic triacontanol after seven and six days respectively was similar to that of the natural triacontanol with the optimum rate at between 0.01 and 0.1 mg per liter, as summarized in the following table III:
^2 Tomatoes grown in greenhouse soil and foliage sprayed, including

Coho barley seedlings = experiment: Barley seedlings, triacontanol solutions applied to soil (Example XV); format: in vivo
From the text: To study the growth of 25-day-old "Coho" barley seedlings treated with triacontanol solutions applied to the soil in the greenhouse. Treatments were started when seedlings were 13 days old.

Solubility = format: physicochemical
[1] = system: Barley callus cell culture; experiment: Growth of barley callus cell culture (Example XIX); format: cell-based, interspecific cross of Hordeum vulgare and Hordeum jubatum
Experimental: as §1
5. Barley (interspecific cross of Hordeum vulgare and Hordeum jubatum)
as §2, §3, §4, §5

tobacco callus = experiment: Growth of tobacco callus, triacontanol and octocosanol (Example XIX, FIG. 6); format: cell-based, Nicotiana tabacum, var. Wisconsin 38; conditions: 10 days; for growth over the control: four concentrations
Experimental: as §1
1. Haploid tobacco (Nicotiana tabacum, var. Wisconsin 38)
as §2, §3, §4, §5
A stock solution of octocosanol (CH3 (CH2)26 CH2 OH was prepared in the same manner as the triacontanol solutions above described.
The effect of four concentrations of triacontanol and octocosanol on tobacco callus was determined, using the materials and procedures above described in this Example. The dishes were tared and weighed at the end of 10 days. The results are illustrated in FIG. 6 of the drawings.

[2] = printed 10.0 g triacontanol, 12 days
[3] = 10 μg per liter, nutrient solution

SMILES: CCCCCCCCCCCCCCCCCCCCCCCCCCCCCCO [Triacontanol, 1-triacontanol]
- growth of in vitro cell cultures (Bean callus cell culture; bean): significant increases in growth
- % of control (Bean callus cell culture; [2]): 149 % of control
- Fresh weight (Bean callus cell culture; [2]): 19.8
- time within which dry weight of entire plant significantly increased (IR-8 rice seedlings; [3]): ≤ 3 days
- time within which leaf area significantly increased (IR-8 rice seedlings; [3]): ≤ 8 h
- Dry Wt. per plant (IR-8 rice seedlings; 8 hours): 53.4 mg
- Leaf Area per plant (IR-8 rice seedlings; 8 hours): 8.2 cm^2
- Water Uptake per leaf area (IR-8 rice seedlings; 8 hours): 0.25 ml/cm^2 leaf area
- Water Uptake per plant (IR-8 rice seedlings; 8 hours): 2.0 mL
- Dry Wt. per plant (IR-8 rice seedlings; 24 hours): 58.6 mg
- Leaf Area per plant (IR-8 rice seedlings; 24 hours): 9.0 cm^2
- Water Uptake per leaf area (IR-8 rice seedlings; 24 hours): 0.35 ml/cm^2 leaf area
- Water Uptake per plant (IR-8 rice seedlings; 24 hours): 3.2 mL
- Dry Wt. per plant (IR-8 rice seedlings; 72 hours): 81.7 mg
- Leaf Area per plant (IR-8 rice seedlings; 72 hours): 13.7 cm^2
- Water Uptake per leaf area (IR-8 rice seedlings; 72 hours): 1.34 ml/cm^2 leaf area
- Water Uptake per plant (IR-8 rice seedlings; 72 hours): 18.4 mL
- Dry Wt. per plant (IR-8 rice seedlings; 216 hours): 204.0 mg
- Leaf Area per plant (IR-8 rice seedlings; 216 hours): 22.4 cm^2
- Water Uptake per leaf area (IR-8 rice seedlings; 216 hours): 2.92 ml/cm^2 leaf area
- Water Uptake per plant (IR-8 rice seedlings; 216 hours): 65.5 mL
- Dry wt (Chico III tomatoes; 0.001 mg/liter): 227 mg/shoot
- Dry wt (Chico III tomatoes; 0.010 mg/liter): 251 mg/shoot
- Dry wt (Chico III tomatoes; 0.100 mg/liter): 245 mg/shoot
- Dry wt (Chico III tomatoes; 1.000 mg/liter): 234 mg/shoot
- Seedling wt (Coho barley seedlings; nutrients 0, triacontanol 0.01 mg/L): 275 mg/shoot
- Seedling wt (Coho barley seedlings; nutrients 0, triacontanol 0.10 mg/L): 270 mg/shoot
- Seedling wt (Coho barley seedlings; nutrients 100 mg 20-20-20/L, triacontanol 0.01 mg/L): 310 mg/shoot
- Seedling wt (Coho barley seedlings; nutrients 100 mg 20-20-20/L, triacontanol 0.10 mg/L): 316 mg/shoot
- Seedling wt (Coho barley seedlings; nutrients 1000 mg 20-20-20/L, triacontanol 0.01 mg/L): 438 mg/shoot
- Seedling wt (Coho barley seedlings; nutrients 1000 mg 20-20-20/L, triacontanol 0.10 mg/L): 442 mg/shoot
- solubility in alcohol, qualitative (Solubility; alcohol): soluble in alcohol
- solubility in ether and benzene, qualitative (Solubility; ether and benzene): very soluble in ether and benzene
- solubility in water, qualitative (Solubility; water): relatively water insoluble
- solubility (Solubility; water, read-out: solubility limit in water): ~0.3 µg/mL (≈ 0.684 µM)
- growth of in vitro cell cultures ([1]; barley): significant increases in growth
- % of control [1, 2]: 167 % of control
- Fresh weight [1, 2]: 35.0
- optimum concentration for growth (tobacco callus): 0.1 μg per dish
- growth over the control (tobacco callus; listed as 1-triacontanol): significant increases in growth
- growth over the control (tobacco callus; listed as triacontanol): significant increases in growth over the control

Source: patent publication US4150970A, “Growth regulator for plants” (Board of Trustees of Michigan State University, priority 1977, dated 1979)
